The source of these data is US20210040089A1, “KRAS MUTANT PROTEIN INHIBITORS” (Jacobio Pharmaceuticals Co., Ltd., priority 2019, published 2021).

Experiment [1] deals with Phospho-ERK1/2(THR202/TYR204) in NCI-H358 cells express KRAS G12C. As to the kind of experiment: Phospho-ERK1/2(THR202/TYR204) HTRF assay. The experiment is classed as cell-based. The settings on record: Homo sapiens; NCI-H358, 2 hours incubation; read-out: p-ERK inhibition in NCI-H358 IC50. The protocol: NCI-H358 cells express KRAS G12C were cultured in RPMI 1640 medium (Gibco) containing 10% fetal bovine serum (Gibco). Cells in culture medium were plated in 96-well plates at a concentration of 40,000 cells/well and allowed to attach overnight. The next day, culture medium was removed and added compounds diluted in assay medium (RPMI 1640, 0.1% EFBS). After 2 hours incubation in a 37° C./5% CO2 cell incubator, the assay medium was removed, then 50 μL of 1× supplemented lysis buffer (Cisbio) was added and the plates were incubated at 25° C. for 45 min with shaking. 10 μL of cell lysates from the 96-well plates were transferred to a 384-well plate (Greiner) containing 2.5 µL/well HTRF® pre-mixed antibodies (Cisbio 64AERPEH).
Incubate 4 hours at 25° C. and then read HTRF signals on Tecan Spark multimode microplate reader. The data were analyzed using a 4-parameter logistic model to calculate IC50 values.
On the technique in general: TR-FRET usually uses a lanthanide donor and a delayed reading to cut background.

In experiment [2] the target is T1, KRAS G12C (Homo sapiens, UniProt P01116, G12C).
T1 construct: HIS-KRAS (G12C, aa 2-185, Sino biological); purchased Sino biological
T1 sequence (P01116 2-185 isoform P01116-2 G12C): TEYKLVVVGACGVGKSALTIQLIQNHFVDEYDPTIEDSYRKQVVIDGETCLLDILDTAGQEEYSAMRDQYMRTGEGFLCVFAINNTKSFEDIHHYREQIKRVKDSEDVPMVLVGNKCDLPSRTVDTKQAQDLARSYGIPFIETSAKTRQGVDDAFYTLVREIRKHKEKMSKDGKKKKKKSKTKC
As to the kind of experiment: SOS1 catalyzed nucleotide exchange assay (TR-FRET). The experiment is classed as biochemical. The settings on record: GDP-loaded HIS-KRAS(G12C), 1 hour pre-incubation with compound. As for the experimental part:
1. SOS1 Catalyzed Nucleotide Exchange Assay
HIS-KRAS (G12C, aa 2-185, Sino biological) was diluted to […] EDTA buffer (20 mM HEPES, pH 7.4, 50 mM NaCl, 10 mM EDA, 0.01% (v/v) Tween-20) and incubated for 30 min at 25° C. The EDTA pretreated HIS-KRAS(G12C) was diluted to 12 nM in assay buffer (25 mM HEPES, pH 7.4, 120 mM NaCl, 5 mM MgCl2, 1 mM DTI, 0.01% (v/v) Tween 20, 0.1% (w/v) BSA) containing 120 nM GDP(Sigma) and Mab Anti 6HIS-Tb cryptate Gold(Cisbio) and incubated for 1 hour at 25° C. to prepare GDP-loaded HIS-KRAS(G12C). The GDP-loaded HIS-KRAS(G12C) was pre-incubation with diluted compounds in a 384-well plate (Greiner) for 1 hour, then purified SOS 1ExD (Flag tag, aa 564-1049) and BODIPY™FL GTP (Invitrogen) were added to the assay wells (Final concentration: 3 nM HIS-KRAS(G12C), 2 μM SOS1 ExD, 80 nM BODIPY™FL GTP, 21 ng/mL MAb Anti 6HS-Tb cryptate Gold) and incubated for 4 hours at 25° C. TR-FRET signals were then read on Tecan Spark multimode microplate reader. The parameters were F486: Excitation 340 (35) nm, Emission 486 (10) nm, Lag time 100 μs, Integration time […]; F515: Excitation 340 (35) nm, Emission 515 (10) nm, Lag time […], Integration time 200 s. TR-FRET ratios for each individual wells were calculated by equation: TR-FRET ratio=(Signal F515/Signal F486)*10000. Then the data were analyzed using a 4-parameter logistic model to calculate IC50 values.

Experiment [3] relates to NCI-H358 cells express KRAS G12C. As to the kind of experiment: Cell growth inhibition assay (CCK-8). Type of experiment: cell-based. The settings on record: Homo sapiens, 144 h; NCI-H358, 6 days incubation. As for the experimental part: 3. Cell Growth inhibition assay
NCI-H358 cells express KRAS G12C were cultured in RPMI 1640 medium (Gibco) containing 10% fetal bovine serum (Gibco). Cells in culture medium were plated in 96-well plates at a concentration of 3000 cells/well ([…]) and allowed to attach overnight. The next day, compounds were diluted in culture medium and added to the plates. After 6 days incubation in a 37° C./5% CO2 cell incubator, the medium was removed, then 100 μL of 1×CCK-8 (MCE) in culture medium was added in each well. The plates were incubated 1.5-2 hours in a 37° C./5% CO2 cell incubator. OD450 signals were read on Tecan Spark multimode microplate reader and analyzed using a 4-parameter logistic model to calculate IC50 values.

As usually defined, the IC50 is the concentration needed to halve the response being measured. Regarding `C=CC(=O)N1CCN(c2nc(O[C@H]3CC[C@H](N(C)C)CC3)nc3c2CCN(c2cccc4ccccc24)C3)CC1CC#N` (stereo partly drawn) [Compound 1, 2-(1-acryloyl-4-(2-(((1r,4r)-4-(dimethylamino)cyclohexyl)oxy)-7-(naphthalen-1-yl)-5,6,7,8-tetrahydropyrido[3,4-d]pyrimidin-4-yl)piperazin-2-yl)acetonitrile], in experiment [1], the IC50 was 3200 nM.

`C=CC(=O)N1CCN(c2nc(OCC3(CN(C)C)CC3)nc3c2CCN(c2cccc4ccn(C)c(=O)c24)C3)CC1CC#N` (stereo not drawn) [Compound 2, 2-(1-acryloyl-4-(2-((1-((dimethylamino)methyl)cyclopropyl)methoxy)-7-(2-methyl-1-oxo-1,2-dihydroisoquinolin-8-yl)-5,6,7,8-tetrahydropyrido[3,4-d]pyrimidin-4-yl)piperazin-2-yl)acetonitrile]: the IC50 in experiment [2] was more than 500 nM.

As to `C=CC(=O)N1CCN(c2nc(OCC3(N(C)C)CCC3)nc3c2CCN(c2cccc4ccccc24)C3)CC1CC#N` (stereo not drawn) [Compound 9, 2-(1-acryloyl-4-(2-((1-(dimethylamino)cyclobutyl)methoxy)-7-(naphthalen-1-yl)-5,6,7,8-tetrahydropyrido[3,4-d]pyrimidin-4-yl)piperazin-2-yl)acetonitrile], the values for the half-inhibitory concentration (IC50) in experiment [1] and in experiment [3] were 1150 nM and 888 nM, respectively.

Regarding `C=CC(=O)N1CCN(c2nc(OC3CCCCC3N(C)C)nc3c2CCN(c2cccc4ccccc24)C3)CC1CC#N` (stereo not drawn) [Compound 11, 2-(1-acryloyl-4-(2-((2-(dimethylamino)cyclohexyl)oxy)-7-(naphthalen-1-yl)-5,6,7,8-tetrahydropyrido[3,4-d]pyrimidin-4-yl)piperazin-2-yl)acetonitrile], in experiment [1], the IC50 was determined as 9860 nM.

Consider `C=CC(=O)N1CCN(c2nc(OC3CCC(N(C)C)C3)nc3c2CCN(c2cccc4ccccc24)C3)CC1CC#N` (stereo not drawn) [Compound 13, 2-(1-acryloyl-4-(2-((3-(dimethylamino)cyclopentyl)oxy)-7-(naphthalen-1-yl)-5,6,7,8-tetrahydropyrido[3,4-d]pyrimidin-4-yl)piperazin-2-yl)acetonitrile], for which the half-maximal inhibitory concentration (IC50) is 684 nM in experiment [2] and 1210 nM in experiment [1].

Turning to `C=CC(=O)N1CCN(c2nc(OC3CCCC3N3CCN(C)CC3)nc3c2CCN(c2cccc4ccccc24)C3)CC1CC#N` (stereo not drawn) [Compound 16, 2-(1-acryloyl-4-(2-((2-(4-methylpiperazin-1-yl)cyclopentyl)oxy)-7-(naphthalen-1-yl)-5,6,7,8-tetrahydropyrido[3,4-d]pyrimidin-4-yl)piperazin-2-yl)acetonitrile], the IC50 in experiment [1] is 7060 nM.

Turning to `C=CC(=O)N1CCN(c2nc(OCC3CC3CN(C)C)nc3c2CCN(c2cccc4ccccc24)C3)CC1CC#N` (stereo not drawn) [Compound 19, 2-(1-acryloyl-4-(2-((2-((dimethylamino)methyl)cyclopropyl)methoxy)-7-(naphthalen-1-yl)-5,6,7,8-tetrahydropyrido[3,4-d]pyrimidin-4-yl)piperazin-2-yl)acetonitrile], the IC50 in experiment [2] amounted to 372 nM; in experiment [1], 748 nM.

With `C=CC(=O)N1CCN(c2nc(OCCC3CCCC3N(C)C)nc3c2CCN(c2cccc4ccccc24)C3)CC1CC#N` (stereo not drawn) [Compound 21, 2-(1-acryloyl-4-(2-(2-(2-(dimethylamino)cyclopentyl)ethoxy)-7-(naphthalen-1-yl)-5,6,7,8-tetrahydropyrido[3,4-d]pyrimidin-4-yl)piperazin-2-yl)acetonitrile], the IC50 in experiment [1] was more than 1000 nM.

Take `C=CC(=O)N1CCN(c2nc(OCC3CCC(N(C)C)C3)nc3c2CCN(c2cccc(F)c2Cl)C3)CC1CC#N` (stereo not drawn) [Compound 29, 2-(1-acryloyl-4-(7-(2-chloro-3-fluorophenyl)-2-((3-(dimethylamino)cyclopentyl)methoxy)-5,6,7,8-tetrahydropyrido[3,4-d]pyrimidin-4-yl)piperazin-2-yl)acetonitrile]: the IC50 in experiment [1] is more than 1000 nM.

In turn, `C=CC(=O)N1CCN(c2nc(OCC3(N4CCCC4)CC3)nc3c2CCN(c2cccc4ccccc24)C3)CC1CC#N` (stereo not drawn) [Compound 32, 2-(1-acryloyl-4-(7-(naphthalen-1-yl)-2-((1-(pyrrolidin-1-yl)cyclopropyl)methoxy)-5,6,7,8-tetrahydropyrido[3,4-d]pyrimidin-4-yl)piperazin-2-yl)acetonitrile] returned an IC50 in experiment [3] of 696 nM.

`C=CC(=O)N1CCN(c2nc(OCC3(CN(C)C)CC3)nc3c2CCN(c2cccc4scnc24)C3)CC1CC#N` (stereo not drawn) [Compound 52, 2-(1-acryloyl-4-(7-(benzo[d]thiazol-4-yl)-2-((1-((dimethylamino)methyl)cyclopropyl)methoxy)-5,6,7,8-tetrahydropyrido[3,4-d]pyrimidin-4-yl)piperazin-2-yl)acetonitrile]: the results for the half-maximal inhibitory concentration (IC50) in experiment [2] and in experiment [1] were 485 nM and more than 500 nM, respectively.

Consider `C=CC(=O)N1CCN(c2nc(OCC3(CN(C)C)CC3)nc3c2CCN(c2cccc4c2OCC4)C3)CC1CC#N` (stereo not drawn) [Compound 53, 2-(1-acryloyl-4-(7-(2,3-dihydrobenzofuran-7-yl)-2-((1-((dimethylamino)methyl)cyclopropyl)methoxy)-5,6,7,8-tetrahydropyrido[3,4-d]pyrimidin-4-yl)piperazin-2-yl)acetonitrile], for which the 50% inhibitory concentration (IC50) in experiment [2] was 174 nM; in experiment [1] it was more than 500 nM.

For the compound `C=CC(=O)N1CCN(c2nc(OCC3(CN(C)C)CC3)nc3c2CCN(c2c(N)cccc2F)C3)CC1CC#N` (stereo not drawn) [Compound 55, 2-(1-acryloyl-4-(7-(2-amino-6-fluorophenyl)-2-((1-((dimethylamino)methyl)cyclopropyl)methoxy)-5,6,7,8-tetrahydropyrido[3,4-d]pyrimidin-4-yl)piperazin-2-yl)acetonitrile], in experiment [2], the IC50 was more than 500 nM.

`C=CC(=O)N1CCN(c2nc(O[C@H]3CCCC[C@@H]3N(C)C)nc3c2CCN(c2cccc4ccccc24)C3)CC1CC#N` (stereo partly drawn) [Compound 60, 2-(1-acryloyl-4-(2-(((1S,2S)-2-(dimethylamino)cyclohexyl)oxy)-7-(naphthalen-1-yl)-5,6,7,8-tetrahydropyrido[3,4-d]pyrimidin-4-yl)piperazin-2-yl)acetonitrile]: in experiment [1], the IC50 is 7120 nM.

Take `C=C(F)C(=O)N1CCN(c2nc(OCC3(CN(C)C)CC3)nc3c2CCN(c2cccc(C)c2C)C3)CC1CC#N` (stereo not drawn) [Compound 80, 2-(4-(2-((1-((dimethylamino)methyl)cyclopropyl)methoxy)-7-(2,3-dimethylphenyl)-5,6,7,8-tetrahydropyrido[3,4-d]pyrimidin-4-yl)-1-(2-fluoroacryloyl)piperazin-2-yl)acetonitrile]: the IC50 is 285 nM in experiment [2] and more than 500 nM in experiment [1].

As for `C=C(F)C(=O)N1CCN(c2nc(OCC3(CN4CCC(F)(F)C4)CC3)nc3c2CCN(c2cccc4cccc(C)c24)C3)CC1CC#N` (stereo not drawn) [Compound 81, 2-(4-(2-((1-((3,3-difluoropyrrolidin-1-yl)methyl)cyclopropyl)methoxy)-7-(8-methylnaphthalen-1-yl)-5,6,7,8-tetrahydropyrido[3,4-d]pyrimidin-4-yl)-1-(2-fluoroacryloyl)piperazin-2-yl)acetonitrile], the half-maximal inhibitory concentration (IC50) in experiment [2] is more than 500 nM.

With `C/C=C/C(=O)N1CCN(c2nc(OCC3(CN(C)C)CC3)nc3c2CCN(c2cccc(C)c2C)C3)CC1CC#N` (stereo not drawn) [Compound 82, (E)-2-(1-(but-2-enoyl)-4-(2-((1-((dimethylamino)methyl)cyclopropyl)methoxy)-7-(2,3-dimethylphenyl)-5,6,7,8-tetrahydropyrido[3,4-d]pyrimidin-4-yl)piperazin-2-yl)acetonitrile], the IC50 in experiment [2] was 211 nM; in experiment [1], more than 500 nM.
